The results in this text go back to patent US20230247991A1, “ANTIMICROBIAL MIXTURE CONTAINING 4-(3-ETHOXY-4-HYDROXYPHENYL)BUTAN-2-ONE AND AN ORGANIC ACID COMPOUND, AND COSMETIC COMPOSITION CONTAINING SAME” (L'OREAL, priority 2017, published 2023).

“And” between values parts separate entries of the source, which are not always exact repeats. Equal values may be shown once.

Test in all cases: MIC / FIC index synergy test, 96-well microplate, optical density at 620 nm
Common to all, as to type: cell-based

Experiment [1] has as its system Staphylococcus aureus ATCC 6538. The conditions noted are these: compound alone. From the text:
(§1) FIC Index=([…]) with: • MICa with B: minimum concentration of product A in the combination A+B which makes it possible to obtain an inhibitory effect • MICb with A: minimum concentration of product B in the combination A+B which makes it possible to obtain an inhibitory effect. • MICa: minimum inhibitory concentration of product A alone. • MICb: minimum inhibitory concentration of product B alone. […] As regards the combinations tested, MICa with b and MICb with a are the respective concentrations of A and of B in the combinations which make it possible to obtain a microbial growth percentage of less than or equal to 25%. When the FIC index value is less than or equal to 1, it is considered that the combination of test compounds has a synergistic effect. The microbial strain Staphylococcus aureus ATCC 6538 and a double-concentration nutritive broth liquid culture medium were used. A 96-well microplate and an incubation temperature of 32.5° C. are used. […] Successive dilutions were made with the 1‰ agar solution. 50 μl of each of the daughter solutions obtained containing compound A or B are added to the microplate wells. 100 μl of Sabouraud liquid nutrient broth inoculated at double concentration with the strain Candida albicans and 50 μl of aqueous 1‰ agar solution are also added thereto. 50 μl of each of the daughter solutions obtained containing compound A and 50 μl of each of the daughter solutions obtained containing compound B are added to the microplate wells. 100 μl of Sabouraud liquid nutrient broth inoculated at double concentration with the strain Candida albicans are also added thereto. […] The test as described above (tests, absorbance controls and growth control) was performed again to test the combination A+B on the following strains Enterococcus faecalis, Staphylococcus aureus, Pseudomonas aeruginosa, Candida albicans.

Experiment [2] concerns Candida albicans ATCC 10231. To be noted: compound alone. From the text: FIC Index=([…]) with: • MICa with B: minimum concentration of product A in the combination A+B which makes it possible to obtain an inhibitory effect • MICb with A: minimum concentration of product B in the combination A+B which makes it possible to obtain an inhibitory effect. • MICa: minimum inhibitory concentration of product A alone. • MICb: minimum inhibitory concentration of product B alone. […] The microbial strain Candida albicans ATCC 10231 and a double-concentration Sabouraud broth liquid culture medium were used. A 96-well microplate and an incubation temperature of 32.5° C. are used. […] Successive dilutions were made with the 1‰ agar solution. 50 μl of each of the daughter solutions obtained containing compound A or B are added to the microplate wells. 100 μl of Sabouraud liquid nutrient broth inoculated at double concentration with the strain Candida albicans and 50 μl of aqueous 1‰ agar solution are also added thereto. 50 μl of each of the daughter solutions obtained containing compound A and 50 μl of each of the daughter solutions obtained containing compound B are added to the microplate wells. 100 μl of Sabouraud liquid nutrient broth inoculated at double concentration with the strain Candida albicans are also added thereto. In the two cases (test and control), the inoculum represents the concentration of the strain Candida albicans present in the final volume of the wells (200 μl) and is between 2 and 6χ 10^5 cfu/ml of Candida albicans.

Experiment [3] deals with Pseudomonas aeruginosa ATCC 9027. To be noted: compound alone.
Text: as §1, with “25%. […]” for “25%. When the FIC index value is less than or equal to 1, it is considered that the combination of test compounds has a synergistic effect.”, “strain Pseudomonas aeruginosa” for “strain Staphylococcus aureus”, “ATCC 9027” for “ATCC 6538”

Experiment [4] has as its system Aspergillus niger ATCC 6275. The conditions noted are these: for microbial growth percentage: compound alone.
The test system of experiment [5] is Enterococcus faecalis ATCC 33186. To be noted: compound alone.
Text: as §1, with “25%. […]” for “25%. When the FIC index value is less than or equal to 1, it is considered that the combination of test compounds has a synergistic effect.”, “strain Enterococcus faecalis” for “strain Staphylococcus aureus”, “ATCC 33186” for “ATCC 6538”, “double-concentration BHI (Brain Heart Infusion)” for “double-concentration nutritive”

The mark [6] stands for this setting: first concentration giving growth <= 25%.

Consider `CCOc1cc(CCC(C)=O)ccc1O` [A, 4-(3-ethoxy-4-hydroxyphenyl)butan-2-one], for which the microbial growth percentage in experiment [1] (0.0625 weight %) is 67% and 63% and 66%; in experiment [1] (0.125 weight %) it was 65% and 60% and 61%; in experiment [1] (0.25 weight %), 55% and 52% and 51%; in experiment [1] (0.5 weight %), 5% and 1%; in experiment [2] (0.025 weight %), 55% and 56% and 61% and 74% and 53%; in experiment [2] (0.2 weight %), 6%. Further, the microbial growth percentage was 79% and 78% and 87% in experiment [3] (0.25 weight %); 74% and 52% and 64% in experiment [3] (0.5 weight %); 84% in experiment [4] (0.0025 weight %); 65% and 62% in experiment [4] (0.025 weight %); 40% and 32% in experiment [4] (0.05 weight %); 84% and 96% in experiment [4] (0.0625 weight %). Also, the microbial growth percentage was 40% and 41% in experiment [4] (0.125 weight %); 6% and 7% in experiment [4] (0.25 weight %); 5% in experiment [4] (0.4 weight %); 15% and 28% and 16% in experiment [5] (1 weight %); 24% in experiment [5] (2 weight %). Besides, the MIC alone was 0.5 weight % in experiment [1] (setting [6]); 0.1 weight % and 0.2 weight % in experiment [2] (setting [6]). Moreover, in experiment [4] (setting [6]), the “MIC of compound alone” value was 0.25 weight % and 0.1 weight % and 0.4 weight % and 0.2 weight %. The “% MIC alone” value in experiment [5] (setting [6]) is 1 weight % and 2 weight %.
